Tests used:
Settings in all cases: Compound concentration 100.0 nM
[1] = tested on: Phosphatidylinositol 4,5-bisphosphate 3-kinase catalytic subunit alpha isoform (Homo sapiens), P42336 [M1043I]
[2] = molecular target: Serine/threonine-protein kinase TAO1 (Homo sapiens) (UniProt Q7L7X3)
[3] = molecular target: Phosphatidylinositol 4-kinase beta (Homo sapiens) (UniProt Q9UBF8)
[4] = molecular target: T1, Tyrosine-protein kinase ZAP-70 (Homo sapiens) (UniProt P43403)
T1 sequence (whole entry): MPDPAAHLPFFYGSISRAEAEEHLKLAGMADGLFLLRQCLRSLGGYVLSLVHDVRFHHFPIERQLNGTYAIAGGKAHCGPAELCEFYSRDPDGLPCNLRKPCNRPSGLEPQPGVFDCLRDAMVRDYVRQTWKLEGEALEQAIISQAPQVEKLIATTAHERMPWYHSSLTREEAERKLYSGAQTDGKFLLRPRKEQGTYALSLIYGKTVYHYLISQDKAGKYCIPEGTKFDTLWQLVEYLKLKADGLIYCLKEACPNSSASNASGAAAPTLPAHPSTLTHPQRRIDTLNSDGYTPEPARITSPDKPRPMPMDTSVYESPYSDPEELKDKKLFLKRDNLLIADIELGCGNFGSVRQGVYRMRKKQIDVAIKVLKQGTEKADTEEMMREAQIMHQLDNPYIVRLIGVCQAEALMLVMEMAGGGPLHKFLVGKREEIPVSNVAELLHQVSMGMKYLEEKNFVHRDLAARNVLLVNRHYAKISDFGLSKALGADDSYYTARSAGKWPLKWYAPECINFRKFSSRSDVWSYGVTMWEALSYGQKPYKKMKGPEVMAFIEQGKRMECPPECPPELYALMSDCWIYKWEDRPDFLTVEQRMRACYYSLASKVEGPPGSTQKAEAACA

[5] = molecular target: T2, Tyrosine-protein kinase receptor TYRO3 (Homo sapiens) (UniProt Q06418)
T2 sequence (whole entry): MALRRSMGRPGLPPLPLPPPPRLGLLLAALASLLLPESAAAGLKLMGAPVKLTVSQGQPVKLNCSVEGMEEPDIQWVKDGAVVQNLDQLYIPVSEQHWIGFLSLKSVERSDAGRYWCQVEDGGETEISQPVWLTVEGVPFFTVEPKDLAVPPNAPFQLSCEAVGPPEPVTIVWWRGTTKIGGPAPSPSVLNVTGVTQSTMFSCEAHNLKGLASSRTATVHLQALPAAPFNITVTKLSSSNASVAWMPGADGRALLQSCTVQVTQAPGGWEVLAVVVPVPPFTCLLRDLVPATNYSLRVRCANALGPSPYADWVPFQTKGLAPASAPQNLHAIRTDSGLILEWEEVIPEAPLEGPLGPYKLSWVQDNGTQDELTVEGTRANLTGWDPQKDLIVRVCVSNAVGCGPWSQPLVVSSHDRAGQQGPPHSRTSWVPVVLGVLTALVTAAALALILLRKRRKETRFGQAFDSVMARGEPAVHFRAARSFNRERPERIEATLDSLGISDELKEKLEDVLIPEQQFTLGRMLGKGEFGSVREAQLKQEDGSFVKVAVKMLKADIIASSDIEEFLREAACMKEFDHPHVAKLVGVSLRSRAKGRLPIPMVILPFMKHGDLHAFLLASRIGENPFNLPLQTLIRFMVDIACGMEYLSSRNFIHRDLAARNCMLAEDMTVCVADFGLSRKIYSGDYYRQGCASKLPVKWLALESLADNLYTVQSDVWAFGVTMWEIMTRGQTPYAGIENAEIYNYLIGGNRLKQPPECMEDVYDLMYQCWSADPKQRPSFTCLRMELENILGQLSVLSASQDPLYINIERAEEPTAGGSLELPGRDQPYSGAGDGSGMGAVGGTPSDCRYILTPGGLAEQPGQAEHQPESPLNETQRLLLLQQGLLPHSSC

[6] = molecular target: Serine/threonine-protein kinase pim-3 (Homo sapiens) (UniProt Q86V86)
[7] = molecular target: Serine/threonine-protein kinase ULK1 (Homo sapiens) (UniProt O75385)
[8] = molecular target: BMP-2-inducible protein kinase (Homo sapiens) (UniProt Q9NSY1)
[9] = tested on: Receptor-type tyrosine-protein kinase FLT3 (Homo sapiens), P36888 [K663Q]
[10] = molecular target: Ribosomal protein S6 kinase alpha-4 (Homo sapiens) (UniProt O75676)
Ribosomal protein S6 kinase alpha-4 (Homo sapiens), sequence (O75676 whole entry, looked up): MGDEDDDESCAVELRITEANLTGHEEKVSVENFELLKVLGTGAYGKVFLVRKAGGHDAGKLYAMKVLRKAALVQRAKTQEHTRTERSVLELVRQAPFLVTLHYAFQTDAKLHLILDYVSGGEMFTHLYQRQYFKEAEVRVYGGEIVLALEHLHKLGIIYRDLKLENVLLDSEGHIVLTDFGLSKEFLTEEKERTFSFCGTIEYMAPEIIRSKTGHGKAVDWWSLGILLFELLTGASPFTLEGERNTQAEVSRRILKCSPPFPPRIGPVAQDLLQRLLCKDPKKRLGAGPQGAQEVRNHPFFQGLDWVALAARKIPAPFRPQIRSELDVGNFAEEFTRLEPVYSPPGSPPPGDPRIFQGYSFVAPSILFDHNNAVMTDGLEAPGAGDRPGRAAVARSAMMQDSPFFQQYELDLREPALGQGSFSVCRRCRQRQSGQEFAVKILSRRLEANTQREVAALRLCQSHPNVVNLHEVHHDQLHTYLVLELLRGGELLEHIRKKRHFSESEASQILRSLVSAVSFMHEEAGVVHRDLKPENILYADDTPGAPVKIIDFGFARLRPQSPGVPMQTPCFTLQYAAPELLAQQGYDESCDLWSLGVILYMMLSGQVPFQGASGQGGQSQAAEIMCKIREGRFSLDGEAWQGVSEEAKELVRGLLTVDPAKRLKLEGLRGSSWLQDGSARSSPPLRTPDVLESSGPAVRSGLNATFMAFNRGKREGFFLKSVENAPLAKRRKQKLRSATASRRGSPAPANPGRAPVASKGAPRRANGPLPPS

[11] = molecular target: Mitogen-activated protein kinase 8 (Homo sapiens) (UniProt P45983)
[12] = molecular target: Serine/threonine-protein kinase SIK2 (Homo sapiens) (UniProt Q9H0K1)
Serine/threonine-protein kinase SIK2 (Homo sapiens), sequence (Q9H0K1 whole entry, looked up): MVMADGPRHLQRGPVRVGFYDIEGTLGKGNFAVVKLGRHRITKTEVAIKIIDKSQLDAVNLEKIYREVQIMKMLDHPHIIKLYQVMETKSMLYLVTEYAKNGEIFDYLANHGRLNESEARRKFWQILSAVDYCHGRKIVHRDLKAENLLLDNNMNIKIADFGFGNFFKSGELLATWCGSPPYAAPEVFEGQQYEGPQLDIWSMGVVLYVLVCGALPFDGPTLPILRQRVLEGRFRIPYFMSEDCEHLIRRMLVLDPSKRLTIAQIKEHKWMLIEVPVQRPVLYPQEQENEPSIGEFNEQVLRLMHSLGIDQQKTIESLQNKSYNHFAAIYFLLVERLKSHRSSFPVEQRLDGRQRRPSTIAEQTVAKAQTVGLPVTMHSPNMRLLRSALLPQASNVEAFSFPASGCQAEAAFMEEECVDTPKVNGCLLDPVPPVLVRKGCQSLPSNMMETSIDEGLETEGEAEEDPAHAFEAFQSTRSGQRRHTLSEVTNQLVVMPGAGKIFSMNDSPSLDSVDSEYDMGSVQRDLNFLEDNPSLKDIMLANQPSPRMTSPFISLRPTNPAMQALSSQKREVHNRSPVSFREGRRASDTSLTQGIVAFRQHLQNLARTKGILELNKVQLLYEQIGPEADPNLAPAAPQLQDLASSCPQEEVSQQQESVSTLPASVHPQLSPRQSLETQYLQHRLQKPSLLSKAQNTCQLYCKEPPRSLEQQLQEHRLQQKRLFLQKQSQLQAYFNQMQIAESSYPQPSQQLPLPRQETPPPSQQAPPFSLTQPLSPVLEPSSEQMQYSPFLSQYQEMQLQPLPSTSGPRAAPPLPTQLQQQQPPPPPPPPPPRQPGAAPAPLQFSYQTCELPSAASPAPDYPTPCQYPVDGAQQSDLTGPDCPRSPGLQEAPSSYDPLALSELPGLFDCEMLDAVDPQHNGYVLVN

[13] = molecular target: T3, Calcium/calmodulin-dependent protein kinase type IV (Homo sapiens) (UniProt Q16566)
T3 sequence (whole entry): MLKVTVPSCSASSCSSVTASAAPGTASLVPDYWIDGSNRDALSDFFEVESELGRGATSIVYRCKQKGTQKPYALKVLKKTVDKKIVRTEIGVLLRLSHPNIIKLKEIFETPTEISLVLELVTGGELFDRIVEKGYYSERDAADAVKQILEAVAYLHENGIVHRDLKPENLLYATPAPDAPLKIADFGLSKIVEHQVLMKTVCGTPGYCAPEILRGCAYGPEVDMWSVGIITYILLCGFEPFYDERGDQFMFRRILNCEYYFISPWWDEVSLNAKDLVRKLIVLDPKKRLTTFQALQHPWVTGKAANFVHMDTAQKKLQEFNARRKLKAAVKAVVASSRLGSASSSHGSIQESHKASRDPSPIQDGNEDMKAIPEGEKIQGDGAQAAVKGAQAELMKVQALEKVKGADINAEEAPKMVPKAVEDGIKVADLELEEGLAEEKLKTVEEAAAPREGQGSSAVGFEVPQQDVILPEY

[14] = molecular target: G protein-coupled receptor kinase 4 (Homo sapiens) (UniProt P32298)
[15] = molecular target: Dual specificity mitogen-activated protein kinase kinase 4 (Homo sapiens) (UniProt P45985)
[16] = molecular target: Mitogen-activated protein kinase kinase kinase kinase 1 (Homo sapiens) (UniProt Q92918)
Mitogen-activated protein kinase kinase kinase kinase 1 (Homo sapiens), sequence (Q92918 whole entry, looked up): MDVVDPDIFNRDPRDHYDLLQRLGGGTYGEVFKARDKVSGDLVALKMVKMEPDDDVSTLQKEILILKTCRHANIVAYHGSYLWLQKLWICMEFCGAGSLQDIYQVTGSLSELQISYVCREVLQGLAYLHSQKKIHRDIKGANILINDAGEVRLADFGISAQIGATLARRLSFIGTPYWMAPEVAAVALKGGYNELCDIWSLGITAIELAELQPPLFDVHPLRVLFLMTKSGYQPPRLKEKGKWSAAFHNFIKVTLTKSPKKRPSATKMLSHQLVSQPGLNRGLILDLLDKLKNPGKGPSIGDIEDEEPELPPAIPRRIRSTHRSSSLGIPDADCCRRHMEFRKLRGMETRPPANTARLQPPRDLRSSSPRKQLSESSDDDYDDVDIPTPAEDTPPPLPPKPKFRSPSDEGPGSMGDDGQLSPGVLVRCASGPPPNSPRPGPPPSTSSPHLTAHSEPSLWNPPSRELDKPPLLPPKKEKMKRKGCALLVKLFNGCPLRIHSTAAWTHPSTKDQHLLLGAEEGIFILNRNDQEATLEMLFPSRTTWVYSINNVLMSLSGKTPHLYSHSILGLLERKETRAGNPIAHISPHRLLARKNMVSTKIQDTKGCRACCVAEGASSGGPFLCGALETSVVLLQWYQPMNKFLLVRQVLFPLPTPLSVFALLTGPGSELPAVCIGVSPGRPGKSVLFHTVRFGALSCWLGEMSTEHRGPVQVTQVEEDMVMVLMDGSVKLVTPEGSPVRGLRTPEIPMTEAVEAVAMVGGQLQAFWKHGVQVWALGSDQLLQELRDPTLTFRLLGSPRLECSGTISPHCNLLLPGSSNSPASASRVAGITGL

[17] = molecular target: Dual specificity mitogen-activated protein kinase kinase 5 (Homo sapiens) (UniProt Q13163)
Dual specificity mitogen-activated protein kinase kinase 5 (Homo sapiens), sequence (Q13163 whole entry): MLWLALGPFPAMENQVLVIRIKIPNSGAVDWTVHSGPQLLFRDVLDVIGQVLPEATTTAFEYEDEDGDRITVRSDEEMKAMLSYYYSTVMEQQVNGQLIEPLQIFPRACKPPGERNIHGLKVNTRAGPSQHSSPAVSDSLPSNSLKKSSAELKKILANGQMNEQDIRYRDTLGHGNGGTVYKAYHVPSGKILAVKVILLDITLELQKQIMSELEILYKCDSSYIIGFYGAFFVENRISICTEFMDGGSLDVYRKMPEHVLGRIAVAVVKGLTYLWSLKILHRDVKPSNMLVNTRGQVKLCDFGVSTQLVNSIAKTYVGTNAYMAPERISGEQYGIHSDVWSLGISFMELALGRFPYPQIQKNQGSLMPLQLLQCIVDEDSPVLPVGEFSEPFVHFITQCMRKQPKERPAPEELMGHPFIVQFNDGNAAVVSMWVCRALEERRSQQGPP

[18] = molecular target: 5'-AMP-activated protein kinase catalytic subunit alpha-2 (Homo sapiens) (UniProt P54646)
5'-AMP-activated protein kinase catalytic subunit alpha-2 (Homo sapiens), sequence (P54646 whole entry, looked up): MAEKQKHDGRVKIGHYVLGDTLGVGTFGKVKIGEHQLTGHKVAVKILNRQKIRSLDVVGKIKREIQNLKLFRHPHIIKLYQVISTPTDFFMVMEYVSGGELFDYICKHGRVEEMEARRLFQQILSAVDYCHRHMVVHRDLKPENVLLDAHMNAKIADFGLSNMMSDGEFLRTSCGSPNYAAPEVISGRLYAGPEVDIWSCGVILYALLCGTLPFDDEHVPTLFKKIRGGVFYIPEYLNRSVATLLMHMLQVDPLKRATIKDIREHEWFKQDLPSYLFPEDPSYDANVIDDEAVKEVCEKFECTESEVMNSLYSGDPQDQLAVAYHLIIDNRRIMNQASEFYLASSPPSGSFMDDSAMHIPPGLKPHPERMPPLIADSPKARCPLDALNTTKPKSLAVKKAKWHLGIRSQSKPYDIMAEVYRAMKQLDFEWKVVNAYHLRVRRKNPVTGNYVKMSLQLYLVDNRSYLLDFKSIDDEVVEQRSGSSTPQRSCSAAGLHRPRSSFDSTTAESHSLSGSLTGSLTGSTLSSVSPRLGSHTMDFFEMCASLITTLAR

Measured: residual activity

Serine/threonine-protein kinase TAO1 (Homo sapiens), sequence (Q7L7X3 whole entry): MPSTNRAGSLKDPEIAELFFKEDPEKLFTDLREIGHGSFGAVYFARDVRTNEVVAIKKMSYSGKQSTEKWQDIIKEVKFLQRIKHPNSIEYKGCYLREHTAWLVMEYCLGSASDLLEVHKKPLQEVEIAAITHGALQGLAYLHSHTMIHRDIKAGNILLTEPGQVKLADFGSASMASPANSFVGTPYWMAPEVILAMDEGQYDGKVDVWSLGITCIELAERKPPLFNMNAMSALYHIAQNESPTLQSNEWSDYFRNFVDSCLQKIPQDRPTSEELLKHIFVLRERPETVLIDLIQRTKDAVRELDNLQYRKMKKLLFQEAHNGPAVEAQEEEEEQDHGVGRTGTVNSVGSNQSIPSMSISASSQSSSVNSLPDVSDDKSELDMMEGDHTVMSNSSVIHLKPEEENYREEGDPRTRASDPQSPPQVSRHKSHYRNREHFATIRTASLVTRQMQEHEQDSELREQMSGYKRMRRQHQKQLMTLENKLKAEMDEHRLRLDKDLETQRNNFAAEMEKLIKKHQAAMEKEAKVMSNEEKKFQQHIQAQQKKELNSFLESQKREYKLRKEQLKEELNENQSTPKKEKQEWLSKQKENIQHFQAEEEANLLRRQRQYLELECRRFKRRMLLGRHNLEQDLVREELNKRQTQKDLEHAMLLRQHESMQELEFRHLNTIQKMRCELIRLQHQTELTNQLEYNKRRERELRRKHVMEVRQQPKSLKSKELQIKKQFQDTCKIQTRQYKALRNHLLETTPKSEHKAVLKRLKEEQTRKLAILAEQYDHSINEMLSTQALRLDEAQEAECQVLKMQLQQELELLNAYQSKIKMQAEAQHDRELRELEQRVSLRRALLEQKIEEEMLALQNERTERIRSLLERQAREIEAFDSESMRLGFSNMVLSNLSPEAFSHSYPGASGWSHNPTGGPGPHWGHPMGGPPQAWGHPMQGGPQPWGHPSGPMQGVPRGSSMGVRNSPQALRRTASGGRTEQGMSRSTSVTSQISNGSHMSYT

Cc1c[nH]c2nccc(Oc3c(F)cc(Nc4cc(Cl)nc(N)n4)cc3F)c12 [BAY-549]
inactive: [1] 66% | [2] 84% | [3] 97% | [4] 100% | [5] 100% | [6] 100% | [7] 92% | [8] 100% | [9] 87% | [10] 100% | [11] 80% | [12] 100% | [13] 100% | [14] 100% | [15] 99% | [16] 73% | [17] 82% | [18] 89%

Cn1cc(Cl)c2c(Oc3c(F)cc(Nc4cc(Cl)nc(N)n4)cc3F)ccnc21 [BAY-4900]
inactive: [1] 64% | [2] 97% | [3] 100% | [4] 100% | [5] 80% | [6] 100% | [7] 93% | [8] 100% | [9] 100% | [10] 87% | [11] 76% | [12] 100% | [13] 96% | [14] 100% | [15] 80% | [16] 82% | [17] 100% | [18] 97%

From ChEMBL document CHEMBL4507274 (2021)
